Assays:
[1] = system: OVA-induced asthmatic mice; test: OVA-induced bronchial asthma mouse model, Standard/Resolution protocols, drug before each i.n. challenge; type: in vivo, mouse (female BALB/c); conditions: 1-, 2- and 3-month groups, versus OVA
Description: The OVA-Induced Bronchial Asthma Mouse Model for Inhibition of Mast Cell Degranulation
Reagents: Crystalline OVA was obtained from Pierce Chem. Co. (Rockford, Ill.) aluminum potassium sulfate (alum) from Sigma Chem. Co. (St. Louis, Mo.), pyrogen-free distilled water from Baxter, Healthcare Corporation (Deerfield, Ill.), 0.9% sodium chloride (normal saline) from Lymphomed (Deerfield, Ill.) and Trappsol™ HPB-L100 (aqueous hydroxypropyl beta cyclodextrin; 45 wt/vol % aqueous solution) from Cyclodextrin Technologies Development, Inc. (Gainesville, Fla.). The OVA (500 μg/ml in normal saline) was mixed with equal volumes of 10% (wt/vol) alum in distilled water. The mixture (pH 6.5 using 10 N NaOH) after incubation for 60 minutes at room temperature underwent centrifugation at 750 g for 5 minutes; the pellet was resuspended to the original volume in distilled water and used within one hour.
The selective 5-lipoxtgenase inhibitor, Zileuton (N-[1-benzo[b]thien-2-ylethyl]-N-hydroxyurea; J. Pharmacol Exp Ther. 1991; 256: 929-937), was kindly provided by Drs. Bell and George W. Carter (Abbott Laboratories, Abbott Part, Ill.). Zileuton was dissolved in Trappsol.™. Histatek, Inc. (Seattle, Wash.) provided the mast cell degranulation inhibitor, f-Met-Leu-Phe-Phe (“HK-X”).
Female BALB/c […] (6-8 wk of age at purchase; D and K, Seattle Wash.) were housed under conventional conditions for the studies.
Allergen Immunization/Challenge Protocols: Mice received an i.p. injection of 0.2 ml (100 μg) of OVA with alum on the different protocols of Standard (FIG. 5A) and Resolution (FIG. 5B) (J. Exp Med. 1996; 184: 1483-1494). According to the different protocols, mice were anesthetized with 0.2 ml i.p. of ketamine (0.44 mg/ml)/xylazine (6.3 mg/ml) in normal saline before receiving an intranasal (i.n.) does of 100 μg OVA in 0.05 ml normal saline and an i.n. dose of 50 μg OVA in 0.05 ml normal saline separately on different days. Two control groups were used. Accordingly, the first group received normal saline with alum i.p. and normal saline without alum i.n.; the second group received OVA with alum i.p., OVA without alum i.n., and normal saline, alone.
The trachea and left lung (the right lung is used for bronchoalveolar lavage (“BAL”)) were obtained and fixed in 10% neutral formaldehyde solution at room temperature for 6˜15h. After being embedded in paraffin, the tissues were cut into 5-um sections and processed with the different staining or immunolabling further. Discombe's eosinophil staining was used for counting the cell numbers with the counterstain of methylene blue. The eosinophil number per unit airway area (2,200 μm^2) was determined by morphometry (J. Pathol. 1992; 166: 395-404; Am Rev Respir Dis. 1993; 147:448-456). Fibrosis was identified with the Masson's trichrome staining. Airway mucus was identified by the following staining method: methylene blue, hematoxylin and eosin, mucicarmine, alcian blue, and alcian blue/periodic acid-Schiff (PAS) reaction (Troyer, H., “Carbohydrates” in Principles and Techniques of Histochemistry, Little, Brown and Company, Boston, Mass., 1980: 89-121; Sheehan, D. C., et al., “Carbohydrates” in Theory and Practice of Histotechnology, Battle Press, Columbus, Ohio, 1980: 159-179). Mucin was stained with mucicarmine solution; metanil yellow counterstain was employed.
Acidic mucin and sulfated mucosubstances were stained with alcian blue, pH 2.5; nuclear fast red counterstain was used. Neutral and acidic mucosubstances were identified by alcian blue. pH 2.5, and PAS reaction. The degree of mucus plugging of the airways (0.5-0.8 mm in diameter) was also assessed by morphometry. The percent occlusion of airway diameter by mucus was classified on a semiquantitative scale from 0 to 4+ as described in Figure Legends. The histologic and morphometric analyses were performed by individuals blinded to the protocol design. […]

mast cells = test: Rat skin model for inhibition of mast cell degranulation induced by Compound 48/80 (area of capillary permeability/bluing); type: in vivo, rat (male Sprague-Dawley); conditions: for % Degranulation: percent mast cell degranulation produced by 48/80, 100 nanomoles peptide, 0.15 μg Compound 48/80
Description: The Rat Skin Model for Determination of Inhibition of Mast Cell Degranulation
Allergy induced asthma results from exposure of substances (allergens) to which an organism has become hypersensitized. Exposure to allergen results in degranulation of mast cells in the lung, releasing leukotrienes and histamines. […] Respiratory symptoms resulting from such an exposure range from mild (itching and sneezing) to potentially fatal (asthma), including in extreme chronic cases death by anaphylaxis.
In this model, the blood plasma of the experimental rat is labeled with the dye trypan blue. This soluble dye is carried in the bloodstream as a passive marker of plasma itself, and is excluded from live cells. Intact blood vessels including the capillary system, retain this dye under normal circumstances. A compound, which induces degranulation of mast cells (resulting in leukotriene and histamine release), is injected into the skin to simulate allergen-induced degranulation. In these experiments, Compound 48/80 was used for this purpose. In the events following leukotriene and histamine release, capillary permeability is increased, and plasma, dyed blue, leaks from capillaries and dyes the skin surrounding the injection site blue. The area of bluing is a measure of the amount of Compound 48/80 injected.
A compound can be tested for “anti-leukotriene” and/or “anti-histamine” activity by mixing it with Compound 48/80 prior to injection.
The rat skin model was undertaken and validated. Various peptides were tested at a predetermined dose for anti-leukotriene and/or anti-histamine activity. The dose selected allowed a general comparison to f-Met-Leu-Phe, which was standard compound for comparison.
A “dose response” titration was performed for some compounds and compared with the standard compound. Observing serial decreases in the size areas of capillary permeability using serially smaller doses of the putative inhibitory compound validates the inhibition of leukotriene and/or histamine release observed in the initial predetermined dose test.
Reagents were obtained from Sigma or Aldrich, with the exception of ketamine, a veterinary anaesthetic that was obtained from various veterinary suppliers. The rats used were male Sprague-Dawley breed, 220-240 g at time of purchase from B&K International.
For the rat skin reaction, rats were anaesthetized with 0.25 ml 10 mg/ml ketamine. 1.0 ml trypan blue in saline (sterile filtered) was administered in a tail vein, and the back of the rat was shaved. Four intradermal injection sites per rat were used for test and control injections.
Compound 48/80 was prepared as a 1.5 mg/ml stock solution in saline. […] Serial dilutions in saline to working levels were prepared just prior to injection of each rat.
Peptides were prepared as a 23 mM stock solution in DMSO, and stored at −20° C. between experiments. At the time of use, the frozen stock solutions were thawed, and appropriate aliquots added to dilutions of Compound 48/80, along with appropriate amounts of DMSO, to result in the ratio of 5 μl DMSO to 0.1 ml aqueous Compound 48/80.
For injections, 0.1 ml Compound […], +/− test compounds were injected intradermally into anaesthetized, dyed, and shaved rats. Following a 15 minute incubation, the rats were sacrificed by cervical dislocation and the back skin was evulsed and placed on a light box. An image of the backlit skin was digitized using a CCD video capture camera and compatible hardware/software. The digitized image was analyzed using a scientific graphics analysis software package, and the areas of capillary permeability (bluing) were integrated and digital values were obtained for further analysis.
A dose response curve was generated using Compound 48/80 at various doses from ca. 0.01 μg through ca 15 μg. […] A dose of 0.15 μg of Compound 48/80 was selected for conducting further tests.
A dose response curve was prepared for the standard compound, f-Met-Leu-Phe, using the selected dose of 0.15 μg Compound 48/80. […]

Compound: CC(c1cc2ccccc2s1)N(O)C(N)=O (centres unmarked) [Zileuton, N-[1-benzo[b]thien-2-ylethyl]-N-hydroxyurea, reference compound]
- Reduction of airway eosinophils over time course [1]: reduced eosinophils generally through 1-3 month

Compound: f-Met-Leu-Phe [Example 2, reference compound]
- Inhibition of degranulation induced by Compound 48/80, dose response curve (mast cells; doses of 0 to about 230 nM peptide, 0.15 μg Compound 48/80 (FIG. 2, FIG. 3)): Inhibition of degranulation induced by Compound 48/80 was clearly shown
- % Degranulation (mast cells): 60%

Compound: f-Met-Leu-Tyr [Example 10]
- % Degranulation (mast cells): 30%

Compound: N-acetyl-Met-Leu-Phe [Example 3]
- % Degranulation (mast cells): 98%
